Values of other authors, collected in patent publication US7960134B1, “Kinase inhibition models and their uses” (ArQule, Inc., priority 2007, dated 2011).

How the values were obtained:
c-Met = c-Met (Homo sapiens, UniProt P08581); conditions: observation cited from WO 2006/086484 A1
c-Abl = c-Abl (Homo sapiens, UniProt P00519); conditions: observation cited from WO 2006/086484 A1
Sequence of c-Abl (P00519 whole entry): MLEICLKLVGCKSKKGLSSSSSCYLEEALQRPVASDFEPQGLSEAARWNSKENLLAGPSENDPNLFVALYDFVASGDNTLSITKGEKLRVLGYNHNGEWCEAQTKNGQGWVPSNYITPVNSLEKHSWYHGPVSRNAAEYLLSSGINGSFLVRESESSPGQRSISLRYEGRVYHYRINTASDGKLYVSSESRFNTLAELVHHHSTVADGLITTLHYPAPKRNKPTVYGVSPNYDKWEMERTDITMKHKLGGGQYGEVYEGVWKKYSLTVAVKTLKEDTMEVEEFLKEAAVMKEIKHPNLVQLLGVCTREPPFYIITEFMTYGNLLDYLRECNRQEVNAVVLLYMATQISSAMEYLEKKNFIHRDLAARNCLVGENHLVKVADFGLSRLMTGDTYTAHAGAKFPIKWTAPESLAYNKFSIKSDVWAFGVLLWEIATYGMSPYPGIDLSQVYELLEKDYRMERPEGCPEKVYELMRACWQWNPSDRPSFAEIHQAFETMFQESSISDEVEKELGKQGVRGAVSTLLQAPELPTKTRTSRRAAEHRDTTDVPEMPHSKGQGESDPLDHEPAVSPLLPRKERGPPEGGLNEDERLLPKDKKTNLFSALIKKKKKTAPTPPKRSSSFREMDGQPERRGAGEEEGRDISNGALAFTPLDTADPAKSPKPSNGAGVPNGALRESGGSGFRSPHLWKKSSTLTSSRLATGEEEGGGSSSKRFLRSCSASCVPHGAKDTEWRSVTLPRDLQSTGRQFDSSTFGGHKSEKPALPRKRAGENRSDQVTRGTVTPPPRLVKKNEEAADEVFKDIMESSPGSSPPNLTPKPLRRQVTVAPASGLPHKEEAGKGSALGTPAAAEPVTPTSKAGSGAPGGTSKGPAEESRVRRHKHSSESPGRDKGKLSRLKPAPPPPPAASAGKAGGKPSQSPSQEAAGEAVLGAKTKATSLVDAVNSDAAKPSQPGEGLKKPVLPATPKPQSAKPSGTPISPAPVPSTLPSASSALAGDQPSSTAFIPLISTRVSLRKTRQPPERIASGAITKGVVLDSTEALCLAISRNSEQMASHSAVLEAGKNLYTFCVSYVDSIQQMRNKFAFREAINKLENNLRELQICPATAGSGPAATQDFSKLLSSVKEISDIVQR

Sequence of c-Met (P08581 25-1390): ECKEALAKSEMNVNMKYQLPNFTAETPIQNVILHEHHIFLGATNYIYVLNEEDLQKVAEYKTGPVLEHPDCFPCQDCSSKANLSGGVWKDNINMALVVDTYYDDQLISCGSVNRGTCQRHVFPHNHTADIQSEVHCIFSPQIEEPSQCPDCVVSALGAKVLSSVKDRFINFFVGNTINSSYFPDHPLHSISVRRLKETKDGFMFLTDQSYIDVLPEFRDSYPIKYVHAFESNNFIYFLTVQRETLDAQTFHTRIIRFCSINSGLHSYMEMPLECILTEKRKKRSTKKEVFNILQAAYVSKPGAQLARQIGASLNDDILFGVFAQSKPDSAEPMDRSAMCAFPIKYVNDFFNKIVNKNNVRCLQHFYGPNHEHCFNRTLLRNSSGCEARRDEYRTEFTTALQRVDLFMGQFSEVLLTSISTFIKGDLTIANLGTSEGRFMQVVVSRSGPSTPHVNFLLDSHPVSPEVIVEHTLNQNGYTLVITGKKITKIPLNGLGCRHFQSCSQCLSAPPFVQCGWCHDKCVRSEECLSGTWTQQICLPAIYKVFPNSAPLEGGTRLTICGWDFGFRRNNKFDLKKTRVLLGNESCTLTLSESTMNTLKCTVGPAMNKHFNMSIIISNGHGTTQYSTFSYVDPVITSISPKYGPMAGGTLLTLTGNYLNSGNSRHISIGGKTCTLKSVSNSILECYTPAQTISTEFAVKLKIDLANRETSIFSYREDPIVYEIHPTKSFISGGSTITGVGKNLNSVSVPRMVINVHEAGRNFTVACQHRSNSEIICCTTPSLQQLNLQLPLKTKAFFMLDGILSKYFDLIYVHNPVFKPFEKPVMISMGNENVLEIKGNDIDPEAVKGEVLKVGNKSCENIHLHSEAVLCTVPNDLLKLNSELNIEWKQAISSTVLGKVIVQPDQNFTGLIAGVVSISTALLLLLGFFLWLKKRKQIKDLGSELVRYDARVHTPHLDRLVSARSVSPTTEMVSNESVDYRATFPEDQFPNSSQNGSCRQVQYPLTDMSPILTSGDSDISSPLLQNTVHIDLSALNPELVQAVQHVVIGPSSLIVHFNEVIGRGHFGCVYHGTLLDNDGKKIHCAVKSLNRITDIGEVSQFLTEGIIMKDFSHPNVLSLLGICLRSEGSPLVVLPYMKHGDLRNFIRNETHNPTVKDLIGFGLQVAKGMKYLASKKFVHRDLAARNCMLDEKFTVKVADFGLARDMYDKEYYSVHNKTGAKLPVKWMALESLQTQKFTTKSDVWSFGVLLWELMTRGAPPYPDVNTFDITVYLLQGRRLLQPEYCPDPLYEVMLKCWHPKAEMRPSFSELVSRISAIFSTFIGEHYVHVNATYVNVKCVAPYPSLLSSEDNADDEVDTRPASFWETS

O=C1NC(=O)[C@@H](c2cn3c4c(cccc24)CCC3)[C@@H]1c1c[nH]c2ccccc12 (single isomer, unassigned) [the selective c-Met inhibitor, (−)-trans-3-(5,6-dihydro-4H-pyrrolo[3,2,1-ij]quinolin-1-yl)-4(1H-indol-3-yl)pyrrolidine-2,5-dione]
inhibition of the activity of c-Met (c-Met): inhibits the activity of c-Met effectively | inhibition of the activity of c-Abl (c-Abl): does not inhibit the activity of c-Abl effectively
